From patent publication US20040101477A1, “Individualization of therapy with anesthetics” (Xanthus Life Sciences, Inc., priority 2002, published 2004)
Where two headings read alike, the source gives them in different places. Marks after values point to notes of the source that are not given here.

Key:
[1] = tested on: cytochrome P-450; conditions: microsomal preparations; cited from earlier work
[2] = cited from earlier work; for metabolized fraction of the absorbed anesthetic: in vivo
[3] = 37° C.; cited from earlier work
[4] = humans; cited from earlier work
[5] = mouse, inhalation, 0.05%, 18 months; cited from earlier work
[6] = tested on: spermatogonia cells and bone marrow cells; conditions: rat, one-year exposure, 1 and 10 ppm, with nitrous oxide; cited from earlier work
[7] = tested on: Chinese hamster lung fibroblast; conditions: cited from earlier work
[8] = tested on: Chinese hamster ovary cells; conditions: cited from earlier work
[9] = tested on: human leukocyte culture; conditions: cited from earlier work
[10] = rat, 10 ppm, with nitrous oxide; cited from earlier work
[11] = subanesthetic and/or anesthetic concentrations; cited from earlier work
[12] = tested on: AAMU-Ab; assay: Competitive antigen ELISA, cross-reactivity of AAMU-Ab; format: binding, rabbit; conditions: 0 = absence of inhibition or inhibition no higher than 40% at 5 × 10^−3 M
Description: (§1) Buffers and water without additives are filtered through millipore filters and kept for 1 week. BSA, antibodies, Tween™ 20 and horse radish peroxidase conjugates are added to these buffers and water just prior to use. Urine samples are usually collected 4 hours after drinking a cup of coffee (instant or brewed with approximately 100 mg of caffeine per cup) and stored at 80° C. The urine samples are diluted 10 times with sodium phosphate buffer (620 mosm, pH 7.50) and are subsequently diluted with water to give concentrations of AAMU and 1× no higher than 3×10^−6 M in the ELISA. All the pipettings are done with an eight-channel pipette, except those of the antibody and sample solutions. Starting with the last well, 100 μL of a carbonate buffer (100 mM, pH 9.6) containing 2.5 μg mL-^1 antibodies are added to each well. After 90 min. at room temperature, the wells are washed three times with […] of TPB: isotonic sodium phosphate buffer (310 mosm, pH 7.50) containing 0.05% Tween™ 20.
(§2) After the initial wash, unoccupied sites are blocked by incubation for 90 min. at room temperature with 100 μL TBP containing 3% BSA. The wells are washed four times with 100 μL TPB. […] The microplate is gently shaken with an orbital shaker at room temperature for 3-4 hours. The wells are washed three times with 100 μL TPB containing 1% BSA and three times with water containing 0.05% Tween™ 20. To the washed plate is added 150 μL of a substrate buffer composed of citric acid (25 mM) and sodium phosphate dibasic buffer (50 mM, pH 5.0) containing 0.06% hydrogen peroxide and 0.04% o-phenylenediamine hydrochloride.
(§3) Buffers and water without additives were filtered through millipore filters and kept for 1 week. BSA, antibodies, Tween™ 20 and horse radish peroxidase conjugates were added to these buffers and water just prior to use. Urine samples were usually collected 4 hours after drinking a cup of coffee (instant or brewed with approximately 100 mg of caffeine per cup) and stored at −80° C. They were diluted 10 times with sodium phosphate buffer (620 mosm, pH 7.50) and were subsequently diluted with water to give concentrations of AAMU and 1× no higher than 3×10^−6 M in the ELISA. All the pipettings were done with an eight-channel pipette, except those of the antibody and sample solutions. Starting with the last well, 100 μL of a carbonate buffer (100 mM, pH 9.6) containing 2.5 μg mL-^1 antibodies was pipetted. After 90 min. at room temperature, the wells were washed three times with 100 μL of TPB: isotonic sodium phosphate buffer (310 mosm, pH 7.50) containing 0.05% Tween™ 20.
(§4) After the initial wash, unoccupied sites were blocked by incubation for 90 min. at room temperature with 100 μL TBP containing 3% BSA. The wells were washed four times with 100 μL TPB. […] The microplate was gently shaken with an orbital shaker at room temperature for 3-4 hours. The wells were washed three times with 100 μL with TPB containing 1% BSA and three times with water containing 0.05% Tween™ 20. To the washed plate was added 150 μL of a substrate buffer composed of citric acid (25 mM) and sodium phosphate dibasic buffer (50 mM, pH 5.0) containing 0.06% hydrogen peroxide and 0.04% o-phenylenediamine hydrochloride. After 20 min. at room temperature with shaking, the reaction was stopped with 50 μL of 2.5 N HCl.
(§5) The cross reactivities of AAMU-Ab and 1×-Ab were tested using a wide variety of caffeine metabolites and structural analogs (Table 2 below). AAMU-Ab appeared highly specific for binding AAMU, while 1×-Ab appeared relatively specific for binding 1×.

[13] = tested on: 1X-Ab; assay: Competitive antigen ELISA, cross-reactivity of 1X-Ab; format: binding, rabbit; conditions: 0 = absence of inhibition or inhibition no higher than 40% at 5 × 10^−3 M
Description: as §1, §2, §3, §4, §5

[14] = cited from earlier work

Compound | % Cross-Reaction AAMU-Ab [12] | % Cross-Reaction 1X-Ab [13] [%] | other results
FC(F)(F)C(Cl)Br (racemic) [Halothane, 2-bromo-2-chloro-1,1,1-trifluoro-ethane] |  |  | concentration that destroys cytochrome P-450 [1]: 18800 µM; metabolized fraction of the absorbed anesthetic [2]: 25-45%; blood/gas coefficient [3]: 2.5; olive oil/water coefficient [3]: 220; minimum alveolar concentration (MAC) [4]: 0.64%; carcinogenicity [5]: no evidence of anesthetic-related carcinogenicity; mutagenesis, chromosomal damage [6]: chromosomal damage to spermatogonia cells and bone marrow cells; mutagenesis, Chinese hamster lung fibroblast assay [7]: Negative; mutagenesis, sister chromatid exchange [8]: Negative; mutagenesis, human leukocyte culture assay [9]: Negative; fertility [10]: decreased fertility; teratogenic effects [11]: teratogenic, embryotoxic, and fetotoxic
Cn1c(=O)c2c(ncn2C)n(C)c1=O [1,3,7-Trimethyl Xanthine (Caffeine), 1,3,7-Trimethyl Xanthine] | 0% | 0 | 
Cn1c(=O)c2[nH]cnc2n(C)c1=O [1,3-Dimethyl Xanthine (Theophylline), 1,3-Dimethyl Xanthine] | 0% | 0.2 | 
Cn1c(=O)[nH]c2ncn(C)c2c1=O [1,7-Dimethyl Xanthine (Paraxanthine), 1,7-Dimethyl Xanthine] | 0% | 0.5 | 
Cn1c(=O)[nH]c2[nH]c(=O)n(C)c2c1=O [1,7-Dimethyluric acid] | 0% | 0 | 
Cn1c(=O)[nH]c2nc[nH]c2c1=O [1-Methyl Xanthine (1X), 1-Methyl Xanthine] | 0% | 100 | 
Cn1c(=O)[nH]c2[nH]c(=O)[nH]c2c1=O [1-Methyluric acid] | 0% | 11 | 
Cn1cnc2c1c(=O)[nH]c(=O)n2C [3,7-Dimethyl Xanthine (Theobromine), 3,7-Dimethyl Xanthine] | 0% | 0 | 
Cn1c(=O)[nH]c(=O)c2[nH]cnc21 [3-Methyl Xanthine] | 0% | 0 | 
CC(=O)Nc1c(N)n(C)c(=O)n(C)c1=O [5-Acetamino-6-amino-1,3-dimethyluracil] | 0% | 0 | 
CC(=O)Nc1c(N)n(C)c(=O)[nH]c1=O [5-Acetamino-6-amino-1-methyluracil] | 100% | 0 | 
CC(=O)Nc1c(N)[nH]c(=O)[nH]c1=O [5-Acetamino-6-amino-uracil] | 0.6% | 0 | 
Cn1cnc2[nH]c(=O)[nH]c(=O)c21 [7-Methyl Xanthine] | 0% | 0 | 
Cc1nc2[nH]c(=O)[nH]c(=O)c2[nH]1 [8-Methyl Xanthine] | 0% | 0 | 
FC(F)OC(F)(F)C(F)Cl (stereo not drawn) [Enflurane] |  |  | concentration that destroys cytochrome P-450 [1]: 13300 µM; metabolized fraction of the absorbed anesthetic [2]: 2-8%
Nc1nc2nc[nH]c2c(=O)[nH]1 [Guanine] | 0% | 0 | 
O=c1[nH]cnc2nc[nH]c12 [Hypoxanthine] | 0% | 0 | 
O=c1cc[nH]c(=O)[nH]1 [Uracil] | 0% | 0 | 
O=c1[nH]c(=O)c2[nH]c(=O)[nH]c2[nH]1 [Uric acid] | 0% | 0 | 
O=c1[nH]c(=O)c2[nH]cnc2[nH]1 [Xanthine] | 0^a % | 0 | 
Nc1ccc(S(=O)(=O)c2ccc(N)cc2)cc1 [dapsone] |  |  | adverse reactions ([14]; fast acetylators): 17%; adverse reactions ([14]; slow acetylators): 46%
FC(F)OC(Cl)C(F)(F)F (stereo not drawn) [isoflurane] |  |  | metabolism, fraction of the absorbed anesthetic ([2]; estimated): approximately 0.2%
COC(F)(F)C(Cl)Cl [methoxyflurane] |  |  | concentration that destroys cytochrome P-450 [1]: 5800 µM
